From US11198692B2, “Dihydro-pyrrolo-pyridine derivatives” (Pfizer Inc., priority 2017, dated 2021)

Target: T1, Human M4 receptors (Homo sapiens, UniProt P08173)
T1 construct: expressed in transfected cells
T1 sequence (P08173 1-479): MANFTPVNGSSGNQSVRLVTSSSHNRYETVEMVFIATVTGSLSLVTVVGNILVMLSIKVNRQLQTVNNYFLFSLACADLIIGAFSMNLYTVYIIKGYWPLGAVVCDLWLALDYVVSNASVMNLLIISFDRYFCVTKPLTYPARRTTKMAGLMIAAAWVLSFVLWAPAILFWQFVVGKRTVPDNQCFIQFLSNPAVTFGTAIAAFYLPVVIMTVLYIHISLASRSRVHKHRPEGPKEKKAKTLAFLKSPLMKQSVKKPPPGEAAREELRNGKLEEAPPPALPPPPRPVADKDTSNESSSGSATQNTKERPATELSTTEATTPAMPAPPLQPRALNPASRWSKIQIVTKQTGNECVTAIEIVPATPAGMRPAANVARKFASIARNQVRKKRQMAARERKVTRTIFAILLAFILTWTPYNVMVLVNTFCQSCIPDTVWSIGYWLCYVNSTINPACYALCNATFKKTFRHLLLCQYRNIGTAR
Assay: M4 PAM cAMP assay (GloSensor)
Type: cell-based
Details: HEK293 GloSensor cells expressing hM4, with EC20 acetylcholine and isoproterenol, geometric mean of 2-4 determinations unless footnoted (b: >=5, c: single); for Emax: Emax = maximum asymptote of fitted dose response curve, read-out: EC50 Mean Asymptote Maximum (%)
Description: The M4 cAMP assay was designed to determine the potency and efficacy of muscarinic positive allosteric modulators (PAMs). Human M4 receptors were stably expressed in Human embryonic kidney (HEK293) cells expressed with the Promega GloSensor™ cAMP technology.
HEK293 GloSensor cells expressing hM4 cells were cultured in growth media containing DMEM with 10% FBS, 1% Penicillin/Streptomycin, 500 μg/mL G418, 200 μg/mL Hygomycin B, and 1% Glutamax. When cells had grown to 80%-90% confluency, cells were harvested and seeded at a density of 25,000 cells/40 μL well, in a 384 white walled plates (Becton Dickinson 356661). Plates were incubated at 37 degrees C. and 5% CO2 for use after 24 hours.
Compound Preparation for Activator Screen:
Test compounds were initially prepared as 100% DMSO stock solutions, then transferred and serially diluted in 384-well compound plates (Matrix #4325). Each compound was tested at 10 concentrations in duplicate per experiment. Compound plates are spotted with 0.2 μL/well activator at 400 times the final assay concentration. Positive and negative controls for the compound alone activator response was 10 μM acetylcholine (Sigma # A2661) and DMSO, respectively. EC20 of acetylcholine was also used to define PAM activities.
Promega GloSensor™reagent (Promega # E1291) had previously been aliquotted. For each experiment, a stock solution of GloSensor™ was thawed out and equilibration medium was prepared with 88% CO2-independent media (Invitrogen #18045088), 10% fetal bovine serum and 2% GloSensor™ cAMP Reagent stock solution. Stock solution was mixed. Culture media in cell plates was discarded, then replaced with 40 μL/well pre-warmed equilibration media, then incubated in the dark at room temperature for 2 hours. During the incubation, stimulation media containing agonist and EC20 acetylcholine was prepared. CO2-independent media containing 50 […] Isoproterenol representing an EC80 of b-adrenergic receptor activity (Sigma #16504, 400 times final concentration) and EC20 acetylcholine in 1.25% DMSO was added to all columns of the compound plate, with the exception of column 12 to allow for EC0 control. […] Compounds are now 5 times the final assay concentration. The plate was mixed using a plate agitator. At the end of the 2 hour GloSensor™ incubation, add 10 μL of the CO2-independent media containing agonist, EC20 acetylcholine and isoproterenol to the cell plate. Cell plate was then incubated for 10 minutes at room temperature, and then read using an EnVision plate reader (Perkin Elmer).
Data was exported from the EnVision plate reader. The percent effect for each well was determined using the mean values for the positive and negative controls on each plate for each read, specifically 100*(compound−negative control)/(positive control−negative control). Dose response curves were fitted to the compound percent effect data using a 4-parameter logistic fit model. Data was reported as EC50 and Emax, with the Emax as the maximum asymptote of the fitted dose response curve.

Structure (SMILES) | Emax [%] | EC50 [nM]
CNc1nc(C)c(C)c2c1CN(C(=O)CC1Cc3ccccc3C1)C2 [Example 24, 2-(2,3-dihydro-1H-inden-2-yl)-1-[6,7-dimethyl-4-(methylamino)-1,3-dihydro-2H-pyrrolo[3,4-c]pyridin-2-yl]ethanone] | 98.2 | 7.27
Cc1c2c(c(=O)n(C)c1C)CN(C(=O)CC1CN(c3ccnc(C(F)(F)F)c3)C1)C2 [Example 25, 5,6,7-trimethyl-2-({1-[2-(trifluoromethyl)pyridin-4-yl]azetidin-3-yl}acetyl)-1,2,3,5-tetrahydro-4H-pyrrolo[3,4-c]pyridin-4-one] | 98.9 | 8.35
CNc1nc(C)c(C)c2c1CN(C(=O)CCc1ccc(C#N)cc1)C2 [Example 31, 4-{3-[6,7-dimethyl-4-(methylamino)-1,3-dihydro-2H-pyrrolo[3,4-c]pyridin-2-yl]-3-oxopropyl}benzonitrile] | 102 | 12.1
CNc1nc(C)c(C)c2c1CN(C(=O)CCc1ccc(OC)cc1)C2 [Example 32, 1-[6,7-dimethyl-4-(methylamino)-1,3-dihydro-2H-pyrrolo[3,4-c]pyridin-2-yl]-3-(4-methoxyphenyl)propan-1-one] | 119 | 24.7
CNc1nc(C)c(C)c2c1CN(C(=O)CC1CN(c3ccnc(C(F)(F)F)c3)C1)C2 [Example 34, 1-[6,7-dimethyl-4-(methylamino)-1,3-dihydro-2H-pyrrolo[3,4-c]pyridin-2-yl]-2-{1-[2-(trifluoromethyl)pyridin-4-yl]azetidin-3-yl}ethanone] | 95.9 | 1.3
CNc1nc(C)c(C)c2c1CN(C(=O)CC1CN(c3ccnc(C)c3)C1)C2 [Example 35, 1-[6,7-dimethyl-4-(methylamino)-1,3-dihydro-2H-pyrrolo[3,4-c]pyridin-2-yl]-2-[1-(2-methylpyridin-4-yl)azetidin-3-yl]ethanone] | 97.7 | 13.6
CNc1nc(C)c(C)c2c1CN(C(=O)CC1CN(c3ccnc(C#N)c3)C1)C2 [Example 36, 4-(3-{2-[6,7-dimethyl-4-(methylamino)-1,3-dihydro-2H-pyrrolo[3,4-c]pyridin-2-yl]-2-oxoethyl}azetidin-1-yl)pyridine-2-carbonitrile] | 95.6 | 5.46
CNc1nc(C)c(C)c2c1CN(C(=O)CC1CN(c3nncs3)C1)C2 [Example 37, 1-[6,7-dimethyl-4-(methylamino)-1,3-dihydro-2H-pyrrolo[3,4-c]pyridin-2-yl]-2-[1-(1,3,4-thiadiazol-2-yl)azetidin-3-yl]ethanone] | 93.5 | 3.47
CNc1nc(C)c(C)c2c1CN(C(=O)CCc1cn[nH]c1)C2 [Example 38, 1-[6,7-dimethyl-4-(methylamino)-1,3-dihydro-2H-pyrrolo[3,4-c]pyridin-2-yl]-3-(1H-pyrazol-4-yl)propan-1-one] | 102 | 13.8
Cc1nc(C(F)F)c2c(c1C)CN(C(=O)CC1CN(c3ccnc(C(F)F)c3)C1)C2 [Example 39, 1-[4-(difluoromethyl)-6,7-dimethyl-1,3-dihydro-2H-pyrrolo[3,4-c]pyridin-2-yl]-2-{1-[2-(difluoromethyl)pyridin-4-yl]azetidin-3-yl}ethanone] | 101 | 32

Results, then the compound that gave them:

Emax [%] | EC50 [nM] | Structure (SMILES)
96.8 | 8.46 | CNc1nc(C)c(C)c2c1CN(C(=O)c1cnn(C)c1)C2 [Example 48, [6,7-dimethyl-4-(methylamino)-1,3-dihydro-2H-pyrrolo[3,4-c]pyridin-2-yl](1-methyl-1H-pyrazol-4-yl)methanone]
97.7 | 3.26 | CNc1nc(C)c(C)c2c1CN(C(=O)CC1CN(c3ccc(F)nc3)C1)C2 [Example 51, 1-[6,7-dimethyl-4-(methylamino)-1,3-dihydro-2H-pyrrolo[3,4-c]pyridin-2-yl]-2-[1-(6-fluoropyridin-3-yl)azetidin-3-yl]ethanone]
84.5 | 36.1 | Cc1ncc2c(c1C)CN(C(=O)CC1CN(c3cccnc3)C1)C2 [Example 52, 1-(6,7-dimethyl-1,3-dihydro-2H-pyrrolo[3,4-c]pyridin-2-yl)-2-[1-(pyridin-3-yl)azetidin-3-yl]ethanone]
92.1 | 43.8 | COc1nc(C)c(C)c2c1CN(C(=O)CC1CN(c3cccnc3)C1)C2 [Example 53, 1-(4-methoxy-6,7-dimethyl-1,3-dihydro-2H-pyrrolo[3,4-c]pyridin-2-yl)-2-[1-(pyridin-3-yl)azetidin-3-yl]ethanone]
95.8 | 153 | COCc1nc(C)c(C)c2c1CN(C(=O)CC1CN(c3cccnc3)C1)C2 [Example 54, 1-[4-(methoxymethyl)-6,7-dimethyl-1,3-dihydro-2H-pyrrolo[3,4-c]pyridin-2-yl]-2-[1-(pyridin-3-yl)azetidin-3-yl]ethanone]
96.1 | 78.7 | COc1nc(C)c(C)c2c1CN(C(=O)CC1CN(c3cncnc3)C1)C2 [Example 55, 1-(4-methoxy-6,7-dimethyl-1,3-dihydro-2H-pyrrolo[3,4-c]pyridin-2-yl)-2-[1-(pyrimidin-5-yl)azetidin-3-yl]ethanone]
109 | 150 | Cc1nc(OC(F)F)c2c(c1C)CN(C(=O)CC1CN(c3cncnc3)C1)C2 [Example 56, 1-[4-(difluoromethoxy)-6,7-dimethyl-1,3-dihydro-2H-pyrrolo[3,4-c]pyridin-2-yl]-2-[1-(pyrimidin-5-yl)azetidin-3-yl]ethanone]
96.2 | 95.2 | CNc1nc(C)c(C)c2c1CN(C(=O)C1CC1)C2 [Example 58, cyclopropyl[6,7-dimethyl-4-(methylamino)-1,3-dihydro-2H-pyrrolo[3,4-c]pyridin-2-yl]methanone]
95.5 | 149 | CNc1nc(C)c(C)c2c1CN(C(=O)[C@@H]1CCOC1)C2 [Example 59, [6,7-dimethyl-4-(methylamino)-1,3-dihydro-2H-pyrrolo[3,4-c]pyridin-2-yl][(3R)-tetrahydrofuran-3-yl]methanone]
